Assay results reported in patent US5663162A, “Cephem derivatives” (priority 1993, dated 1997).
Values after ≈ are worked out from the molar mass of the structure shown.

Experiments:
C. freundii GN346/16 = assay: Antibacterial activity test, MIC by two-fold dilution method; type: cell-based; conditions: Citrobacter freundii; C. freundii GN346/16; 10^6 CFU/ml, 35° C., 18 to 20 hours; read-out: Minimum Inhibition Concentration
Experimental: (§1) The measurement was carried out in the following manner: 10^6 CFU/ml of a bacterium to be tested was inoculated on a Medium N for disc susceptibility test (manufactured by Nissui Pharmaceutical Co., Ltd.), and cultivated at 35° C. for 18 to 20 hours.

E. cloacae G-0008 = assay: as above; type: cell-based; conditions: Enterobacter cloacae, G0008; E. cloacae G-0008; 10^6 CFU/ml, 35° C., 18 to 20 hours; read-out: Minimum Inhibition Concentration
Experimental: as §1

E. coli NIHJ JC-2 = assay: as above; type: cell-based; conditions: Escherichia coli, NIHJJC2; E. coli NIHJ JC-2; 10^6 CFU/ml, 35° C., 18 to 20 hours; read-out: Minimum Inhibition Concentration
Experimental: as §1

K. pneumoniae PC1602 = assay: as above; type: cell-based; conditions: Klebsiella pneumoniae; K. pneumoniae PC1602; 10^6 CFU/ml, 35° C., 18 to 20 hours; read-out: Minimum Inhibition Concentration
Experimental: as §1

M. morganii 1510/S-1 = assay: as above; type: cell-based; conditions: Morganella morganii, 1510/S1; M. morganii 1510/S-1; 10^6 CFU/ml, 35° C., 18 to 20 hours; read-out: Minimum Inhibition Concentration
Experimental: as §1

P. aeruginosa E-2 = assay: as above; type: cell-based; conditions: Pseudomonas aeruginosa, E2, read-out: Minimum Inhibition Concentration
Experimental: as §1

P. aeruginosa GN10362 = assay: as above; type: cell-based; conditions: Pseudomonas aeruginosa, GN10362, read-out: Minimum Inhibition Concentration
Experimental: as §1

P. vulgaris GN76 = assay: as above; type: cell-based; conditions: Proteus vulgaris, GN76, read-out: Minimum Inhibition Concentration
Experimental: as §1

S. Aureus 209P JC-1 = assay: as above; type: cell-based; conditions: Staphylococcus aureus; S. Aureus 209P JC-1; 10^6 CFU/ml, 35° C., 18 to 20 hours; read-out: Minimum Inhibition Concentration
Experimental: as §1

S. epidermidis ATCC14990 = assay: as above; type: cell-based; conditions: Staphylococcus epidermidis; S. epidermidis ATCC14990; 10^6 CFU/ml, 35° C., 18 to 20 hours; read-out: Minimum Inhibition Concentration
Experimental: as §1

S. marcescens No. 1 = assay: as above; type: cell-based; conditions: Serratia marcescens; S. marcescens No. 1; 10^6 CFU/ml, 35° C., 18 to 20 hours; read-out: Minimum Inhibition Concentration
Experimental: as §1

S. Aureus 126 = assay: as above; type: cell-based, Staphylococcus aureus (methicillin-resistant, MRSA); conditions: Staphylococcus aureus, MRSA, read-out: Minimum Inhibition Concentration
Experimental: as §1

S. Aureus 133 = assay: as above; type: cell-based, Staphylococcus aureus (methicillin-resistant, MRSA); conditions: Staphylococcus aureus, MRSA, read-out: Minimum Inhibition Concentration
Experimental: as §1

[1] = Acute toxicity test in ICR mice; type: in vivo; conditions: mouse, in vivo, iv
Experimental: (§2) 0.5 ml of a pharmaceutical solution prepared by dissolving a compound of the present invention in a physiological saline solution for injection (80 mg/ml) was injected to the caudal veins of ICR mice (4 weeks old, male, body weight: approx. 20 g). Two weeks after the administration, the mice were observed whether they were dead or not. […] Therefore, the LD50 of this compound is >2 g/kg (>40 mg/mouse).

ICR mice = assay: Acute toxicity test in ICR mice; type: in vivo
Experimental: as §2

With `CCO/N=C(\C(=O)N[C@@H]1C(=O)N2C(C(=O)[O-])=C(C[n+]3cc4sccn4c3CNC=O)CS[C@H]12)c1nsc(N)n1` [Example 49, (6R,7R)-7-[(Z)-2-(5-Amino-1,2,4-thiadiazol-3-yl)-2-ethoxyiminoacetamide]-3-[5-(formylamino)methylimidazo[5,1-b]thiazolium-6-yl]methyl-3-cephem-4-carboxylate] the MIC (C. freundii GN346/16) was 0.05 mg/L (≈ 0.0845 µM), the MIC (E. cloacae G-0008) was 0.05 mg/L (≈ 0.0845 µM) and the MIC (E. coli NIHJ JC-2) was 0.05 mg/L (≈ 0.0845 µM). It also gave an MIC (K. pneumoniae PC1602) of 0.05 mg/L (≈ 0.0845 µM), an MIC (M. morganii 1510/S-1) of at most 0.025 mg/L and an MIC (P. aeruginosa E-2) of 1.56 mg/L (≈ 2.64 µM). It also gave an MIC (P. aeruginosa GN10362) of 1.56 mg/L (≈ 2.64 µM), an MIC (P. vulgaris GN76) of 0.39 mg/L (≈ 0.659 µM) and an MIC (S. Aureus 209P JC-1) of 0.78 mg/L (≈ 1.32 µM). The MIC (S. epidermidis ATCC14990) was 0.78 mg/L (≈ 1.32 µM), the MIC (S. marcescens No. 1) was 0.1 mg/L (≈ 0.169 µM) and the MIC (S. Aureus 126) was 6.25 mg/L (≈ 10.6 µM). The MIC (S. Aureus 133) was 6.25 mg/L (≈ 10.6 µM), the LD50 at 336 h [1] was over 2000 mg/kg and the “survival two weeks after administration” value (ICR mice; ICR mice, 0.5 ml of 80 mg/ml solution, caudal vein, 3 cases) was “all (3 cases) alive”. It also gave an LD50 (ICR mice; mouse, in vivo) of over 40 mg/mouse.
